Assay results: ChEMBL document CHEMBL3991601, “The target landscape of clinical kinase drugs” (Science, 2017)
The source made the active and inactive calls. For most assays here, no stated cut-off is given here; in the data, actives have a measured Kd and inactives only a lower limit.

Assays:
[1] = molecular target: T1, Serine/threonine-protein kinase Chk1 (Homo sapiens, UniProt O14757)
T1 sequence (O14757 whole entry): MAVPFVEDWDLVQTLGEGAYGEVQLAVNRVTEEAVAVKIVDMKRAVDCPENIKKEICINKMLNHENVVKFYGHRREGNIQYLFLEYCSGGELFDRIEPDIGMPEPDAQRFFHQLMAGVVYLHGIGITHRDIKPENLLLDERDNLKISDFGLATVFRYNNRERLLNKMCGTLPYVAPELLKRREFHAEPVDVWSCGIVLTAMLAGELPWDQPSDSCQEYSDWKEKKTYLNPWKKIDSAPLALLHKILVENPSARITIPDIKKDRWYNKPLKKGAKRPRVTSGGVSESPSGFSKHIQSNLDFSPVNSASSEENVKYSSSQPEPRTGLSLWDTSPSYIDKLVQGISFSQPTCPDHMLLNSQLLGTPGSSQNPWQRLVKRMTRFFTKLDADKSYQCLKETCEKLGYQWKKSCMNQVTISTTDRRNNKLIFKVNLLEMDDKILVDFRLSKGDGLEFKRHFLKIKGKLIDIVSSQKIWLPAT

[2] = molecular target: T2, Protein kinase C zeta type (Homo sapiens, UniProt Q05513)
T2 sequence (Q05513 whole entry): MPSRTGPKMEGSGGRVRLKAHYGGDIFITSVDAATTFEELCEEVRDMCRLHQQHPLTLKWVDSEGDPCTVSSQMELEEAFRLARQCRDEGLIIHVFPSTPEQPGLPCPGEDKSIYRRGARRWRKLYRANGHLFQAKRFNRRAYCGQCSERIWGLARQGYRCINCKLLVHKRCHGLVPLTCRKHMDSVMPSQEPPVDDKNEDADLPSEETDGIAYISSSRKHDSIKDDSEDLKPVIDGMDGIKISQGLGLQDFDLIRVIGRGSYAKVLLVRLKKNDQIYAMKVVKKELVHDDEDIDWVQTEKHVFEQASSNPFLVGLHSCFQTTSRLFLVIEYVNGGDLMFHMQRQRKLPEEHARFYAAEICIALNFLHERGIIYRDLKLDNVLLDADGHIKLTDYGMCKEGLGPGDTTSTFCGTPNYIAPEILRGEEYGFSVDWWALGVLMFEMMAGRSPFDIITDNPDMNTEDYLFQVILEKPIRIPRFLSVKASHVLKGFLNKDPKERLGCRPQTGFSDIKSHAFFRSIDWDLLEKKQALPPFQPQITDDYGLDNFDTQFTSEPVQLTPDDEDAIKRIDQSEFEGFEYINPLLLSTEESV

Pyridoxal kinase = molecular target: T3, Pyridoxal kinase (Homo sapiens, UniProt O00764)
T3 sequence (O00764 whole entry): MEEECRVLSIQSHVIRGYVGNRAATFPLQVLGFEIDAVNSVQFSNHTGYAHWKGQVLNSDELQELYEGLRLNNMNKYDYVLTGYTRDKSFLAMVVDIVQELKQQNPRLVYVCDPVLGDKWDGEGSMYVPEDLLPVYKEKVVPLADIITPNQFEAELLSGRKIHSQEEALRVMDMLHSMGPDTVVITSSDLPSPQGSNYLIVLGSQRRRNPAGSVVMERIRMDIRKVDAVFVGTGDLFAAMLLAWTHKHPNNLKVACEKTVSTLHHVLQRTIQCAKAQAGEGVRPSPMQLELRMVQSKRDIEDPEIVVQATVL

[3] = molecular target: Ribosomal protein S6 kinase alpha-3 (Homo sapiens, UniProt P51812)
[4] = molecular target: Casein kinase I isoform delta (Homo sapiens, UniProt P48730)
[5] = molecular target: Ribosomal protein S6 kinase alpha-5 (Homo sapiens, UniProt O75582)
[6] = molecular target: Serine/threonine-protein kinase ATR (Homo sapiens, UniProt Q13535)
[7] = molecular target: Dual specificity protein kinase CLK1 (Homo sapiens, UniProt P49759)
[8] = molecular target: Serine/threonine-protein kinase N3 (Homo sapiens, UniProt Q6P5Z2)
[9] = molecular target: cAMP-dependent protein kinase catalytic subunit alpha (Homo sapiens, UniProt P17612)
[10] = molecular target: Calcium/calmodulin-dependent protein kinase type II subunit gamma (Homo sapiens, UniProt Q13555)
[11] = molecular target: Serine/threonine-protein kinase Nek7 (Homo sapiens, UniProt Q8TDX7)

Measured: Kd

Chain of Casein kinase I isoform delta (P48730 whole entry, canonical isoform): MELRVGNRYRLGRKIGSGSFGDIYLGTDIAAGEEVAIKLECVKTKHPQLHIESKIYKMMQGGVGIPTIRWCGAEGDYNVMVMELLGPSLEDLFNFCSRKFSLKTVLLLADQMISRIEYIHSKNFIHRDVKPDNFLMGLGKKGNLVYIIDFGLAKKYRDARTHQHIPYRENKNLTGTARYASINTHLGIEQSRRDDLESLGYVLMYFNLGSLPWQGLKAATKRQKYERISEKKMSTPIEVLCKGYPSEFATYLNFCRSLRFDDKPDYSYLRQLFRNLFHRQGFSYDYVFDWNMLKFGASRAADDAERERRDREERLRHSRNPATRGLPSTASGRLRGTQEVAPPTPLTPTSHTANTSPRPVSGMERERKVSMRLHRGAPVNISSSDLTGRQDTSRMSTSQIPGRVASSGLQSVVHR
Chain of Serine/threonine-protein kinase N3 (Q6P5Z2 whole entry): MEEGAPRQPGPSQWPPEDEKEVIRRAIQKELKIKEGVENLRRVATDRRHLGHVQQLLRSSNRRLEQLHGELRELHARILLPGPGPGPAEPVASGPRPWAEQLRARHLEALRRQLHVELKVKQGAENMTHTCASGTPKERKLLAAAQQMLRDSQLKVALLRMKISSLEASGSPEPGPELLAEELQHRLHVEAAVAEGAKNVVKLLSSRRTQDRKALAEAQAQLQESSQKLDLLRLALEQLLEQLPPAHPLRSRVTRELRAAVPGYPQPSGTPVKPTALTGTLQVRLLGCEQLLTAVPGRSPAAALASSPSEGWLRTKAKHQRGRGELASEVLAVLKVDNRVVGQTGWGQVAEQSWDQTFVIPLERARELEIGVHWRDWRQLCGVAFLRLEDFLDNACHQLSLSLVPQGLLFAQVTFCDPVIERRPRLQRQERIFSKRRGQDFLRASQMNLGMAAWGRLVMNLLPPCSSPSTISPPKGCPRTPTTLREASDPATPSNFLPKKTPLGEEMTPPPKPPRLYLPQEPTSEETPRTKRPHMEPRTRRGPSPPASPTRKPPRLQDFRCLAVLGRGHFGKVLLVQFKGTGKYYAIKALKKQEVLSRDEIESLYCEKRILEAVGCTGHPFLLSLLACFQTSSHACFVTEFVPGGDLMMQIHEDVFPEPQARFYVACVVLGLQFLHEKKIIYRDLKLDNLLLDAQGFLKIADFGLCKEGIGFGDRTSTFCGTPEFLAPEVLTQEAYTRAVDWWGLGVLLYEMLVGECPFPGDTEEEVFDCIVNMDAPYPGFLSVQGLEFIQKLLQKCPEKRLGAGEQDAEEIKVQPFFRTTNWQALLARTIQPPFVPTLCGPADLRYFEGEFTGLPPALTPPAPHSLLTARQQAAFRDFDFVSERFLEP
Chain of Dual specificity protein kinase CLK1 (P49759 whole entry): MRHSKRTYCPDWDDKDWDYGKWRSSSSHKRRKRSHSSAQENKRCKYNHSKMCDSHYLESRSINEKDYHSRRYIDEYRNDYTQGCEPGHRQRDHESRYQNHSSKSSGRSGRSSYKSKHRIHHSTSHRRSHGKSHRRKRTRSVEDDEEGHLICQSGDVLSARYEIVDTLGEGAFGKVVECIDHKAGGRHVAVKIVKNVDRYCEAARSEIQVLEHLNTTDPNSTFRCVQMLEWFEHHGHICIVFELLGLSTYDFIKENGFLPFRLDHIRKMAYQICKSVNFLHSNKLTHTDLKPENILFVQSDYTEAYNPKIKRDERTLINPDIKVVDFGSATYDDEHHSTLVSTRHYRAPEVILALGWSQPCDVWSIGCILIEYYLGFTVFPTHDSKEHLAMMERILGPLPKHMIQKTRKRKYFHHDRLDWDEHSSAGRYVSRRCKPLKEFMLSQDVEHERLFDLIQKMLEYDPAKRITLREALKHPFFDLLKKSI
Chain of Serine/threonine-protein kinase Nek7 (Q8TDX7 whole entry): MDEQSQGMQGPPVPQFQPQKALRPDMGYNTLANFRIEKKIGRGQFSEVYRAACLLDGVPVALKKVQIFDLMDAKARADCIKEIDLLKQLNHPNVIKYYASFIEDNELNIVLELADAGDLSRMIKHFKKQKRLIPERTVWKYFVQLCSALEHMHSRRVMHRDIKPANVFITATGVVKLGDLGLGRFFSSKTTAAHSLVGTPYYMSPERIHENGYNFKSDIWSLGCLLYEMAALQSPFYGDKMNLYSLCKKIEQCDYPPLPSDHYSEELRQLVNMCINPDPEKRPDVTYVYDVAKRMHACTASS
Chain of Serine/threonine-protein kinase ATR (Q13535 whole entry): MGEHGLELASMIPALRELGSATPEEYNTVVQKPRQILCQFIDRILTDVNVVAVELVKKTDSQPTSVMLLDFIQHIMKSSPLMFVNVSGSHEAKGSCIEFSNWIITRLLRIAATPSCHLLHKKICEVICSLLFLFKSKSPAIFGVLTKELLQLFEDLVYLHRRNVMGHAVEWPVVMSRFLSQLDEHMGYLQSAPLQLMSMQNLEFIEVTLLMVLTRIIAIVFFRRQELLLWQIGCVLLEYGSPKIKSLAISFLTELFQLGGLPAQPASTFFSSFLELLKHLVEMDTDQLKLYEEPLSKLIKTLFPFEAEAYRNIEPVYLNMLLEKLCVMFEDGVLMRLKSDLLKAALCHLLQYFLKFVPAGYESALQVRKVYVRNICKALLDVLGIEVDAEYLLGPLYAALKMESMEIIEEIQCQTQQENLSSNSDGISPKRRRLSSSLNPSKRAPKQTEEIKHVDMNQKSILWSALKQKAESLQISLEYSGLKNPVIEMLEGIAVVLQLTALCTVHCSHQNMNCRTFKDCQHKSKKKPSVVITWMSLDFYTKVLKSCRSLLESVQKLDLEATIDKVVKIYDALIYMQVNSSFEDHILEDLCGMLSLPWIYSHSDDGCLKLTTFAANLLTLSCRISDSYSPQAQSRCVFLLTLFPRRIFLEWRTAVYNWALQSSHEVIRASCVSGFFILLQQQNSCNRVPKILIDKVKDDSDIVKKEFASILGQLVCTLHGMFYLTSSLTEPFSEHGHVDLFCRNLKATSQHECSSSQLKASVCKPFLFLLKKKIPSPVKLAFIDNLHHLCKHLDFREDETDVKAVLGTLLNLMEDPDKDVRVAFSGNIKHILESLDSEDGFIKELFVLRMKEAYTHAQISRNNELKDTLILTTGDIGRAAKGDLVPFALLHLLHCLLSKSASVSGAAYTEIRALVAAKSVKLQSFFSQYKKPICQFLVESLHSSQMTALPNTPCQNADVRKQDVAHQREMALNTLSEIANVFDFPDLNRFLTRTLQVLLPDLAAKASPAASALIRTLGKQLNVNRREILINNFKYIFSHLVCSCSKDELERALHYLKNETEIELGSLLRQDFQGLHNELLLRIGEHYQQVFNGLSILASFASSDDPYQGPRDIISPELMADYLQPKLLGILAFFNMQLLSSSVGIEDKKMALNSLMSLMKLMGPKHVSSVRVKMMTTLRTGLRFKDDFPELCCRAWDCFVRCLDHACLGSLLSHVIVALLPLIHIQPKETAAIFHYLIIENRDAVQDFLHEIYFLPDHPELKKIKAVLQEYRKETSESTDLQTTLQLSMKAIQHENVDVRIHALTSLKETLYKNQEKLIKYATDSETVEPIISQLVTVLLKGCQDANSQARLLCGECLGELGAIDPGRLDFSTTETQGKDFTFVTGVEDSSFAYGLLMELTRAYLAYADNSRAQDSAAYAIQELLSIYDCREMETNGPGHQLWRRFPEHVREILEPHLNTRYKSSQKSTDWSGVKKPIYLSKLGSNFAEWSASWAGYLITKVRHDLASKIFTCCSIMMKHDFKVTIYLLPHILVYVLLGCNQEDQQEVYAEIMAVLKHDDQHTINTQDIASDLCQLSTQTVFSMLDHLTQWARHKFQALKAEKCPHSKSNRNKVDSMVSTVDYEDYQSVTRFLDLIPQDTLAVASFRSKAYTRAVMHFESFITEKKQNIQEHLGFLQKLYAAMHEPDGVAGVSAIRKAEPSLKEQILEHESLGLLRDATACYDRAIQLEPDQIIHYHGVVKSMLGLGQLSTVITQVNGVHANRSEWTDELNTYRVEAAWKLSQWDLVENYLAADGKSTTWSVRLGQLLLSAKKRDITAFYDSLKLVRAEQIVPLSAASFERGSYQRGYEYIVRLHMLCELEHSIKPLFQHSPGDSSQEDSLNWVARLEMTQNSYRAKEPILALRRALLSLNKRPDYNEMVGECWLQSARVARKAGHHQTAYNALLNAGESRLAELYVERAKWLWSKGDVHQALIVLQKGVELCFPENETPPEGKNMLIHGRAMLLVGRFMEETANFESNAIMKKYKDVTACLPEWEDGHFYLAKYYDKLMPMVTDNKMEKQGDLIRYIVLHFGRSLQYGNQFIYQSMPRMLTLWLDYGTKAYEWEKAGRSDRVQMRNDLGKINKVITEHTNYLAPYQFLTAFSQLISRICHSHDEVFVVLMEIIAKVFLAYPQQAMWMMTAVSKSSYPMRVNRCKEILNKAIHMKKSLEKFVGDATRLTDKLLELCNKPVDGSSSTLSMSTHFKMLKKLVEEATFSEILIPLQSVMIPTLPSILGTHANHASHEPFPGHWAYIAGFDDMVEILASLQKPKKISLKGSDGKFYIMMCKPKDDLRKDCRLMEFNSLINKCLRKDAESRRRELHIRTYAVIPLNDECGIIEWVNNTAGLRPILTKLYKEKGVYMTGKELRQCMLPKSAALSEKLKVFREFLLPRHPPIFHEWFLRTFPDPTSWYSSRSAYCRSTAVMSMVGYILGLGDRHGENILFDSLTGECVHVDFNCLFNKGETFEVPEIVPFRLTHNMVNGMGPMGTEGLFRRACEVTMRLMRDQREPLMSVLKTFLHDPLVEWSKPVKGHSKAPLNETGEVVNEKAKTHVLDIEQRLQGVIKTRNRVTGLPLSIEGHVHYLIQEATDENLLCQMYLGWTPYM

O=C(Nc1ccc(-c2ccnc(Nc3ccc(N4CCOCC4)cc3)n2)cc1)C1CCCN1 (configuration not stated) [XL-019]
inactive: [1] > 30 µM | [2] > 30 µM | Pyridoxal kinase > 30 µM | [3] > 30 µM | [4] > 30 µM | [5] > 30 µM | [6] > 30 µM | [7] > 30 µM | [8] > 30 µM | [9] > 30 µM | [10] > 30 µM | [11] > 30 µM
